Results as given in patent publication US20170008928A1, “NOVEL PEPTIDES AND PEPTIDE DERIVATIVES AND USES THEREOF” (Novo Nordisk A/S, priority 2015, published 2017).
Like-named read-outs stand apart in the source and are kept apart here. Starred links: 1 amine or outer side, 2 acyl side, 3 side chain; linkers in the order of their positions; H or OH if unused. Non-standard residues stand in square brackets, D forms with d. Residues, ends and D or L forms follow the SMILES beside them. *: point of attachment. Phe(4-CH2SO3H) = N[C@@H](Cc1ccc(CS(=O)(=O)O)cc1)C(=O)O; sY = N[C@@H](Cc1ccc(OS(=O)(=O)O)cc1)C(=O)O; C18 diacid = O=C(O)CCCCCCCCCCCCCCCCC(=O)*; d(βAsp) = O=C(O)[C@@H](CC(=O)[*:2])N[*:1]; γGlu = O=C(O)[C@H](CCC(=O)[*:2])N[*:1]; Met(O2) = CS(=O)(=O)CC[C@H](N)C(=O)O; NMeF = CN[C@@H](Cc1ccccc1)C(=O)O; dNMeD = CN[C@H](CC(=O)O)C(=O)O; Nle = CCCC[C@H](N)C(=O)O; AEEA = NCCOCCOCC(=O)O

What was measured:
[1] = molecular target: T1, human cholecystokinin-1 receptor (CCK-1R) (Homo sapiens, UniProt P32238); experiment: In vitro potency on CCK-1R, whole cell functional assay (IP1 accumulation, IP-One HTRF); assay type: cell-based
T1 construct: host or cells: 1321-N1 cells
T1 sequence (P32238 1-428): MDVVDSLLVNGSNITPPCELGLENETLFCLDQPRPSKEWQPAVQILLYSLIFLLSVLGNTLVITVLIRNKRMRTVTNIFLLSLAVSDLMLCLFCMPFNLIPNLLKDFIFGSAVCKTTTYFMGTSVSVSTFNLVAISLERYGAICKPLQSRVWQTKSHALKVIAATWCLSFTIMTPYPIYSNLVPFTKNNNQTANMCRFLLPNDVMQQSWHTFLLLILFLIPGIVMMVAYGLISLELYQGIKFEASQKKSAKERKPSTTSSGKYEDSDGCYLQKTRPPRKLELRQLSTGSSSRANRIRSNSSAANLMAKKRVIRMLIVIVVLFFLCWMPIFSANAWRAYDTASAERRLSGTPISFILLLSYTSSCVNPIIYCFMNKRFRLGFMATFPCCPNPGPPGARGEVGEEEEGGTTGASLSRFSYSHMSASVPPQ

[2] = molecular target: T2, human cholecystokinin-2 receptor (CCK-2R) (Homo sapiens, UniProt P32239); experiment: In vitro receptor binding to CCK-2R, SPA displacement of [125I]-CCK-8s from plasma membranes
T2 construct: host or cells: 1321-N1 cells (plasma membranes prepared by Evotec AG Hamburg)
T2 sequence (P32239 1-447): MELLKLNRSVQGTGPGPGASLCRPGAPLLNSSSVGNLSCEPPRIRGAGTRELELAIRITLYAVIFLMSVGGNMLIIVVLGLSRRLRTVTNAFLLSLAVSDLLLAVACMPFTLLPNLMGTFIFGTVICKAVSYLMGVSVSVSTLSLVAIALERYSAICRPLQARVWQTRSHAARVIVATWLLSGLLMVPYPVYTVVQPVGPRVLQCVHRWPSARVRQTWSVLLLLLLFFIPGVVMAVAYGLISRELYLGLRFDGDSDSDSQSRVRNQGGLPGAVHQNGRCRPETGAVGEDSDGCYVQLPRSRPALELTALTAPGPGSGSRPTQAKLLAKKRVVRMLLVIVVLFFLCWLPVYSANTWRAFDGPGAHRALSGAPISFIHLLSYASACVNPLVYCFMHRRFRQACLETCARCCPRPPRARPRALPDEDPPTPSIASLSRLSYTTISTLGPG

[3] = molecular target: T1, human cholecystokinin-1 receptor (CCK-1R); experiment: In vitro receptor binding to CCK-1R, SPA displacement of [125I]-CCK-8s from plasma membranes
Description: The in vitro binding affinity is a measure of the strength of attraction between a receptor and its ligand.
Displacement of radio ligand was measured as reduction in light emission from SPA beads.
The cells used in these assays were 1321-N1 cells stably expressing the CCK-1R or the CCK-2R (Perkin Elmer product numbers ES-530-A and ES-531-A, respectively see www.perkinelmer.com/Catalog/Product/ID/ES-530-A or -ES-531-A, respectively).
The cells were cultured in an incubator (95% RH (relative humidity), 5% (of standard atmospheric pressure) CO2, 37° C.) in cell culture medium (DMEM (Lonza catalogue BE-12-604F/U1), with 10% (v/v) Foetal Calf Serum (FCS, Gibco catalogue 16140-071), 1% (w/w) Sodium pyruvate (Gibco catalogue 11360-039), 500 μg/ml Geneticin® (G418) (Gibco catalogue 10131-027), 25 μg/ml Zeocin™ (Invitrogen catalogue R250-05), 1% (w/w) Pen/Strep (Gibco catalogue 15140-122)).
Plasma membranes were prepared by Evotec AG Hamburg by use of the ParrBomb (#4635, Parr Instrument Company). Cells were lysed with a lysis buffer (50 mM Tris, 2.5 mM EDTA, pH7) with added protease inhibitors (Complete Proteaseinhibitors EDTA-free (#05056489001, Roche), 1 tablet per 50 mL lysis buffer). The membrane fraction was separated by centrifugation. First, the cell lysate was centrifuged at 1000×g for 10 minutes at 4° C. The pellet was discarded and the supernatant was then centrifuged at 100.000×g for 30 minutes at 4° C. The supernatant was discarded and the pellet was re-suspended in 1 ml/5×10^8 cells ice cold membrane buffer (50 mM Tris, 320 mM Sucrose and Complete Proteaseinhibitors EDTA-free (#05056489001, Roche); pH7.4) and homogenised with dounce homogeniser. The protein concentration was determined using the Pierce™ BCA Protein Assay Kit according to kit manual, and the membrane preparation was adjust to the desired protein concentration with membrane buffer and aliquoted into pre-cooled tubes, snap-frozen in liquid nitrogen, and stored at −80° C.
CCK receptor binding assays were performed in 96-well Optiplates (Cat #6005290, PerkinElmer, Waltham, Mass., USA) in a total volume of 200 μl per well. CCK derivatives in 80% DMSO stock solutions of 800 μM were serially diluted […] in assay buffer (50 mM Tris/HCl, 4.5 mM MgCl2, […], 0.02% Tween 20, 0.25% ovalbumin, 0.1% pluronic F-68, pH 7.4) to final assay concentrations ranging from 10^−5 M (ten μM) to 10^−12 M (one pM).
Fifty μl of reference or test compounds were added to the Optiplates (using technical duplicates, i.e. two wells of each sample, one data point being the average of two wells), followed by addition of 150 μl of the mixture of SPA bead, radio ligand, and plasma membrane. The plates were sealed and incubated in the dark at +22° C. for 2 hours on a IKA MTS plate shaker (IKA-Werke D-79219 Staufen) set at 300 rpm and thereafter centrifuged at 1500 rpm for 10 minutes in a Heraeus Multifuge 3s centrifuge. SPA bead light emission was measured in a TopCount NXT (PerkinElmer) for 2 min/well after a delay of 60 min.
As a measure of compound affinity, calculations were performed in order to determine the half maximal inhibitory concentration (the IC50 value).
The data from the TopCounter were given as counts per minute (CPM). The CPM was plotted as a function of the concentration of compound. Dose-response curves were obtained, and IC50 values were calculated, by a nonlinear three-parameter logistic equation (log(agonist) vs response) with hillslope=−1, and shared top and bottom using the software programme GraphPad Prism v 6.0 (Graph Pad software, La Jolla, Calif., USA). The highest dose tested was 10^−5 M (1×10^7 pM).
The preference of a specific compound for the CCK-1 receptor, or the CCK-1R selectivity, may be defined as IC50 (CCK-2R)/IC50 (CCK-1R).
A minimum of three biological replicates was measured for each test compound on separate assay plates.

[4] = molecular target: T2, human cholecystokinin-2 receptor (CCK-2R); experiment: In vitro potency on CCK-2R, whole cell functional assay (IP1 accumulation, IP-One HTRF); assay type: cell-based
[5] = displacement of [125I]-CCK-8s, plasma membranes of 1321-N1 cells expressing CCK-2R, highest dose tested 1×10^7 pM, read-out: IC50 (CCK-2R)
[6] = displacement of [125I]-CCK-8s, plasma membranes of 1321-N1 cells expressing CCK-1R, read-out: IC50 (CCK-1R)
[7] = 1321-N1 cells stably expressing CCK-2R, IP1 accumulation, highest dose tested 1×10^6 pM, read-out: EC50 (CCK-2R)

SMILES	EC50 [4, 7]	IC50 [2]	IC50 [3]	EC50 [4]	other results
CCCC[C@H](NC(=O)[C@H](Cc1ccc(CS(=O)(=O)O)cc1)NC(=O)[C@H](CC(=O)O)NC(=O)COCCOCCNC(=O)[C@H](CCCCN)NC(=O)COCCOCCNC(=O)COCCOCCNC(=O)CC[C@H](NC(=O)CCCCCCCCCCCCCCCCC(=O)O)C(=O)O)C(=O)NCC(=O)N[C@@H](Cc1c[nH]c2ccccc12)C(=O)N[C@@H](CCCC)C(=O)N(C)[C@H](CC(=O)O)C(=O)N(C)[C@@H](Cc1ccccc1)C(N)=O [Example 19, 2-[2-[2-[[2-[2-[2-[[(4S)-4-Carboxy-4-(17-carboxyheptadecanoylamino)butanoyl]amino]ethoxy]ethoxy]acetyl]amino]ethoxy]ethoxy]acetyl-Lys-2-[2-(2-aminoethoxy)ethoxy]acetyl-Asp-Phe(4-sulfomethyl)-Nle-Gly-Trp-Nle-DMeAsp-MePhe-amide] ({C18 diacid-γGlu-AEEA-AEEA}-K[AEEA]D[Phe(4-CH2SO3H)][Nle]GW[Nle][dNMeD][NMeF]-NH2)					EC50 [1]: 0.21 nM
CCCC[C@H](NC(=O)[C@H](Cc1ccc(CS(=O)(=O)O)cc1)NC(=O)C[C@@H](NC(=O)COCCOCCNC(=O)COCCOCCNC(=O)CC[C@H](NC(=O)CCCCCCCCCCCCCCCCC(=O)O)C(=O)O)C(=O)O)C(=O)NCC(=O)N[C@@H](Cc1c[nH]c2ccccc12)C(=O)N[C@@H](CCCC)C(=O)N(C)[C@H](CC(=O)O)C(=O)N(C)[C@@H](Cc1ccccc1)C(N)=O [Example 27, 2-[2-[2-[[2-[2-[2-[[(4S)-4-Carboxy-4-(17-carboxyheptadecanoylamino)butanoyl]amino]ethoxy]ethoxy]acetyl]amino]ethoxy]ethoxy]acetyl-DbAsp-Phe(4-sulfomethyl)-Nle-Gly-Trp-Nle-DMeAsp-MePhe-amide] ({C18 diacid-γGlu-AEEA-AEEA-d(βAsp)}-[Phe(4-CH2SO3H)][Nle]GW[Nle][dNMeD][NMeF]-NH2)	> 1000 nM				IC50 [2, 5]: > 10 µM; IC50 [3, 6]: 0.13 nM
CC(C)C[C@H](NC(=O)[C@H](Cc1ccc(OS(=O)(=O)O)cc1)NC(=O)[C@H](CC(=O)O)NC(=O)COCCOCCNC(=O)COCCOCCNC(=O)CC[C@H](NC(=O)CCCCCCCCCCCCCCCCC(=O)O)C(=O)O)C(=O)NCC(=O)N[C@@H](Cc1c[nH]c2ccccc12)C(=O)N[C@@H](C)C(=O)N(C)[C@H](CC(=O)O)C(=O)N(C)[C@@H](Cc1ccccc1)C(N)=O [Example 40, 2-[2-[2-[[2-[2-[2-[[(4S)-4-Carboxy-4-(17-carboxyheptadecanoylamino)butanoyl]amino]ethoxy]ethoxy]acetyl]amino]ethoxy]ethoxy]acetyl-Asp-sTyr-Leu-Gly-Trp-Ala-DMeAsp-MePhe-amide] ({C18 diacid-γGlu-AEEA-AEEA}-D[sY]LGWA[dNMeD][NMeF]-NH2)		> 10 µM	0.65 nM	880 nM	
CC(C)C[C@H](NC(=O)[C@H](Cc1ccc(OS(=O)(=O)O)cc1)NC(=O)[C@@H](N)CC(=O)O)C(=O)NCC(=O)N[C@@H](Cc1c[nH]c2ccccc12)C(=O)N[C@@H](CCC(N)=O)C(=O)N(C)[C@H](CC(=O)O)C(=O)N(C)[C@@H](Cc1ccccc1)C(N)=O [Example 62, Asp-sTyr-Leu-Gly-Trp-Gln-DMeAsp-MePhe-amide] (H-D[sY]LGWQ[dNMeD][NMeF]-NH2)		> 10 µM	0.075 nM	> 1000 nM	
CC(C)C[C@H](NC(=O)[C@H](Cc1ccc(OS(=O)(=O)O)cc1)NC(=O)[C@@H](N)CC(=O)O)C(=O)NCC(=O)N[C@@H](Cc1c[nH]c2ccccc12)C(=O)N[C@@H](CCS(C)(=O)=O)C(=O)N(C)[C@H](CC(=O)O)C(=O)N(C)[C@@H](Cc1ccccc1)C(N)=O [Example 63, Asp-sTyr-Leu-Gly-Trp-Met(O2)-DMeAsp-MePhe-amide] (H-D[sY]LGW[Met(O2)][dNMeD][NMeF]-NH2)	> 1000 nM	> 10 µM	0.54 nM		
CC(C)C[C@H](NC(=O)[C@H](Cc1ccc(OS(=O)(=O)O)cc1)NC(=O)[C@@H](N)CC(=O)O)C(=O)NCC(=O)N[C@@H](Cc1c[nH]c2ccccc12)C(=O)N[C@H](C(=O)N(C)[C@H](CC(=O)O)C(=O)N(C)[C@@H](Cc1ccccc1)C(N)=O)C(C)C [Example 65, Asp-sTyr-Leu-Gly-Trp-Val-DMeAsp-MePhe-amide] (H-D[sY]LGWV[dNMeD][NMeF]-NH2)		> 10 µM	0.62 nM	> 1000 nM	
CCCC[C@H](NC(=O)[C@H](Cc1c[nH]c2ccccc12)NC(=O)CNC(=O)[C@H](CCCNC(=N)N)NC(=O)[C@H](Cc1ccc(OS(=O)(=O)O)cc1)NC(=O)[C@@H](N)CC(=O)O)C(=O)N(C)[C@H](CC(=O)O)C(=O)N(C)[C@@H](Cc1ccccc1)C(N)=O [Example 68, Asp-sTyr-Arg-Gly-Trp-Nle-DMeAsp-MePhe-amide] (H-D[sY]RGW[Nle][dNMeD][NMeF]-NH2)					EC50 ([1]; 1321-N1 cells stably expressing CCK-1R, IP1 accumulation, average of min. three replicates, read-out: EC50 (CCK-1R)): 0.21 nM
CCCC[C@H](NC(=O)[C@H](Cc1c[nH]c2ccccc12)NC(=O)CNC(=O)[C@H](CC(C)C)NC(=O)[C@H](Cc1ccc(OS(=O)(=O)O)cc1)NC(=O)[C@@H](N)CCC(=O)O)C(=O)N(C)[C@H](CC(=O)O)C(=O)N[C@@H](Cc1ccccc1)C(N)=O [Example 90, Glu-sTyr-Leu-Gly-Trp-Nle-DMeAsp-Phe-amide] (H-E[sY]LGW[Nle][dNMeD]F-NH2)	> 1000 nM				IC50 [2, 5]: > 10 µM; IC50 [3, 6]: 0.029 nM
